# Calls of active or inactive are those of the source. The calls are words filed in the database; no cut-off is given here.
# What was measured:
# [1] = molecular target: G protein-coupled receptor kinase 5 (Homo sapiens) (UniProt P34947); assay: GPRK5 SGC Tm panel (DSF); conditions: for ΔTm: Compound concentration 10.0 uM
# [2] = molecular target: Alpha-1B adrenergic receptor (Homo sapiens) (UniProt P35368); conditions: Compound concentration 10.0 uM
# [3] = molecular target: Membrane-associated tyrosine- and threonine-specific cdc2-inhibitory kinase (Homo sapiens) (UniProt Q99640); assay: PKMYT1 SGC Tm panel (DSF); conditions: Compound concentration 10.0 uM
# [4] = molecular target: Calcium/calmodulin-dependent protein kinase type II subunit beta (Homo sapiens) (UniProt Q13554); assay: CAMK2B SGC Tm panel (DSF); conditions: for ΔTm: Compound concentration 10.0 uM
# [5] = molecular target: 5-hydroxytryptamine receptor 1A (Homo sapiens) (UniProt P08908); conditions: Compound concentration 10.0 uM
# [6] = molecular target: Dual specificity tyrosine-phosphorylation-regulated kinase 1A (Homo sapiens) (UniProt Q13627); assay: DYRK1A SGC Tm panel (DSF); conditions: for ΔTm: Compound concentration 10.0 uM
# [7] = molecular target: T1, Tyrosine-protein kinase Mer (Homo sapiens) (UniProt Q12866); assay: MERTK SGC Tm panel (DSF); conditions: for ΔTm: Compound concentration 10.0 uM
# T1 sequence (whole entry): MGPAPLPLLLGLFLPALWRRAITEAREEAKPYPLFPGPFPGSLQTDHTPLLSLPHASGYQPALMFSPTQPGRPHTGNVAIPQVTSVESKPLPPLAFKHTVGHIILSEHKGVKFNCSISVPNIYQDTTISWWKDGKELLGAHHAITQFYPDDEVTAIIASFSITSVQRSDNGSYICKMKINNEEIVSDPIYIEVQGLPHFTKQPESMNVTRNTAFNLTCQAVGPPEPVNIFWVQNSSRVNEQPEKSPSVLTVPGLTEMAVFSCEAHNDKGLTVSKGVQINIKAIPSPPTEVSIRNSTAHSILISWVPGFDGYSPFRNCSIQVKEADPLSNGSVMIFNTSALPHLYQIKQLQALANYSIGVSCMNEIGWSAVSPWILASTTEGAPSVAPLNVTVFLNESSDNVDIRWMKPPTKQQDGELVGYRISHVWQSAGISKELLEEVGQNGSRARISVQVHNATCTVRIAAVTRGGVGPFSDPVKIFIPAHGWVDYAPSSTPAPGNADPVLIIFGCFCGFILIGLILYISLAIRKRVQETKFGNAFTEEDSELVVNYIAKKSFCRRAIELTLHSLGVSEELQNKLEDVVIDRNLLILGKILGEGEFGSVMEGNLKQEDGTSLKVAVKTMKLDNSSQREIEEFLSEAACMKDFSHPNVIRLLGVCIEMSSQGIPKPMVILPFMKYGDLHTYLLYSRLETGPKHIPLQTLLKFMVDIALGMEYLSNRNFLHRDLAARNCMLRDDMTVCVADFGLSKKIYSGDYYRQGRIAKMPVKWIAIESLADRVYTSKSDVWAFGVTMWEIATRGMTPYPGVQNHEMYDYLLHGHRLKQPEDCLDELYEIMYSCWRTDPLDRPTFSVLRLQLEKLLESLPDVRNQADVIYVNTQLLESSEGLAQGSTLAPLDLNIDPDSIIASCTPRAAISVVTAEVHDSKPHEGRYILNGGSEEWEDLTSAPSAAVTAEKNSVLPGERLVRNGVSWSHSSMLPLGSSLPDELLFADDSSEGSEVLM
# [8] = molecular target: Transcription initiation factor TFIID subunit 1 (Homo sapiens) (UniProt P21675); assay: TAF1 SGC Tm panel (DSF); conditions: for ΔTm: Compound concentration 10.0 uM
# Transcription initiation factor TFIID subunit 1 (Homo sapiens), sequence (P21675 whole entry): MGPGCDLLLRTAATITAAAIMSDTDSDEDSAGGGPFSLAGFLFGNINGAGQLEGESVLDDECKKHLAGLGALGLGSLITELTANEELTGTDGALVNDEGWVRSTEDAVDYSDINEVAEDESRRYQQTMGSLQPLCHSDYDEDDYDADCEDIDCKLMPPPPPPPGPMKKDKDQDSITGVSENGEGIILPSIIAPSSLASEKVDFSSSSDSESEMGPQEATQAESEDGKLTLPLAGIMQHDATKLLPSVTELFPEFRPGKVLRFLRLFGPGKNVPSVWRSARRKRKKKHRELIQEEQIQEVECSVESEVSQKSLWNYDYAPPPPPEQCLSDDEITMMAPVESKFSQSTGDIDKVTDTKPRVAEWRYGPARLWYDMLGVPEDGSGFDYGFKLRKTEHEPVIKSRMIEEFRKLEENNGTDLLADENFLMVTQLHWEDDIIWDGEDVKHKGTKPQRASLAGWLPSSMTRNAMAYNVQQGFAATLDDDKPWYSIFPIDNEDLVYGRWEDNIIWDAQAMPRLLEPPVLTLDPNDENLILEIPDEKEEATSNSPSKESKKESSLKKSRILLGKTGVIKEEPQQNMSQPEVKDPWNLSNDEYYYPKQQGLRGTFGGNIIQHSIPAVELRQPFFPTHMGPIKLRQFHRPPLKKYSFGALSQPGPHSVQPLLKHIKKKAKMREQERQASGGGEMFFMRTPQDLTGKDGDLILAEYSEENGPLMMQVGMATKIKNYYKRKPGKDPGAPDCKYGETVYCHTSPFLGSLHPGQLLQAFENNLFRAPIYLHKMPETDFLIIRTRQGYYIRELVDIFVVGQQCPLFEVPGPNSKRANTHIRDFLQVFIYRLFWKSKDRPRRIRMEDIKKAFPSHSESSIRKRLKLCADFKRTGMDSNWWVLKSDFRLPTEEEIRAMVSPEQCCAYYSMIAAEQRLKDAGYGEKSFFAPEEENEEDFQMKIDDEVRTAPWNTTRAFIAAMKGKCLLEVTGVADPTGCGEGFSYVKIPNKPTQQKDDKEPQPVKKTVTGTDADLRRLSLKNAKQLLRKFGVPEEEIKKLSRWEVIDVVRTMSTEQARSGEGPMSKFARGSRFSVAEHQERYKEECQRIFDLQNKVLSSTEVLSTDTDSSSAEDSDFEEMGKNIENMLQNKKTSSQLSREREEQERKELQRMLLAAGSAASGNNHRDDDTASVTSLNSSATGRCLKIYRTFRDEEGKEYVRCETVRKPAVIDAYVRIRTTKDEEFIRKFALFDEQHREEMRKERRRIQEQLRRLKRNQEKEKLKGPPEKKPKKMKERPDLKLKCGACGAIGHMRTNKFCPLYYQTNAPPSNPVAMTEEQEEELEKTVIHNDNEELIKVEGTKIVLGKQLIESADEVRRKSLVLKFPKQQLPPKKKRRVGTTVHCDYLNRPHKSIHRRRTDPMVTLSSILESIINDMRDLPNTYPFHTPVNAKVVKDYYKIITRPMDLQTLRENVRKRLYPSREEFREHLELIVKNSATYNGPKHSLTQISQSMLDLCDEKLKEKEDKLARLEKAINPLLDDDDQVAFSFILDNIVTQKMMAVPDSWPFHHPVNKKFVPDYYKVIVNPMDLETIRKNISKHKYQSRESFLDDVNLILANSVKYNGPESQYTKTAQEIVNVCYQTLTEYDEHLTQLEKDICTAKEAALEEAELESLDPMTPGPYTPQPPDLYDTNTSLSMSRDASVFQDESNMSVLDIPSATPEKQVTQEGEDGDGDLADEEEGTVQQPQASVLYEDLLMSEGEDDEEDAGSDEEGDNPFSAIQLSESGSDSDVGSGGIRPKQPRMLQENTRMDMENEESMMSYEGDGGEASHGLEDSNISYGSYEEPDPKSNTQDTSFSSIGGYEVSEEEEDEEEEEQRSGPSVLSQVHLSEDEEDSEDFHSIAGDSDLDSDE
# [9] = molecular target: T2, Serine/threonine-protein kinase Nek2 (Homo sapiens) (UniProt P51955); assay: NEK2 SGC Tm panel (DSF); conditions: for ΔTm: Compound concentration 10.0 uM
# T2 sequence (whole entry): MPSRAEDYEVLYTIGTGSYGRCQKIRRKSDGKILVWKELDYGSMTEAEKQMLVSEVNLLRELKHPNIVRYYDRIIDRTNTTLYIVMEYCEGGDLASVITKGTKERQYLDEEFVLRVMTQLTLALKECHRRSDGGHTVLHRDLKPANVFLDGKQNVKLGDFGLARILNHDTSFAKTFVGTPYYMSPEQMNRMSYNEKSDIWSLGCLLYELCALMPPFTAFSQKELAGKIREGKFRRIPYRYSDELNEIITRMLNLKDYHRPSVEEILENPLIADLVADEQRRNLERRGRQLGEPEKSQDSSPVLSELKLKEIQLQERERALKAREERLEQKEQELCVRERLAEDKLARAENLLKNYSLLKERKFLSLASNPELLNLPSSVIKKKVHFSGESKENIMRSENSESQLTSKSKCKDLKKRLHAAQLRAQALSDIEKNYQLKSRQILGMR
# [10] = molecular target: Serine/threonine-protein kinase 24 (Homo sapiens) (UniProt Q9Y6E0); assay: MST3 SGC Tm panel (DSF); conditions: for ΔTm: Compound concentration 10.0 uM
# Serine/threonine-protein kinase 24 (Homo sapiens), sequence (Q9Y6E0 whole entry, looked up, canonical isoform): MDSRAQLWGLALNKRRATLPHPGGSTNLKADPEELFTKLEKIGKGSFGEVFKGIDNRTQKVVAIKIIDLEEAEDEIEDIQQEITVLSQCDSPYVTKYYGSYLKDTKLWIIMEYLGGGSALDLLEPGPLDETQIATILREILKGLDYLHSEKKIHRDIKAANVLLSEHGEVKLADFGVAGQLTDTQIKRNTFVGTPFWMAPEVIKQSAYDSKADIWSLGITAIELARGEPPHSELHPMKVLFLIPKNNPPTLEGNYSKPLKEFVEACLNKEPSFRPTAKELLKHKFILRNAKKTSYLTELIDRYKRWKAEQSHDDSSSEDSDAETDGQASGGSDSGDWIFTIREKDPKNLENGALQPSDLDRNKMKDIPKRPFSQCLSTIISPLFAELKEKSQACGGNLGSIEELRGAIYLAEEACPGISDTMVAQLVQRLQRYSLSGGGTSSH
# [11] = molecular target: T3, Phosphorylase b kinase gamma catalytic chain, liver/testis isoform (Homo sapiens) (UniProt P15735); assay: PHKG2 SGC Tm panel (DSF); conditions: for ΔTm: Compound concentration 10.0 uM
# T3 sequence (whole entry): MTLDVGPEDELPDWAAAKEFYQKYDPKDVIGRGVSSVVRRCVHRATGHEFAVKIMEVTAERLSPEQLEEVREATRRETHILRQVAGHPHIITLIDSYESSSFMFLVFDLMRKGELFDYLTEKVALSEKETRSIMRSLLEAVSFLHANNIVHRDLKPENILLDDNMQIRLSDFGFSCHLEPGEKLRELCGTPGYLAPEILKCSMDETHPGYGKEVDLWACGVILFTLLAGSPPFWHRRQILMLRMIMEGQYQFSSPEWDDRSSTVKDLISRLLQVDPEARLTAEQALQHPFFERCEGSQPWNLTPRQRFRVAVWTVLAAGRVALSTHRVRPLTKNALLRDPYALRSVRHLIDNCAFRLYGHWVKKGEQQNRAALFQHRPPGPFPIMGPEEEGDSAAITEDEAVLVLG
# [12] = molecular target: Ephrin type-A receptor 7 (Homo sapiens) (UniProt Q15375); assay: EPHA7 SGC Tm panel (DSF); conditions: for ΔTm: Compound concentration 10.0 uM
# Ephrin type-A receptor 7 (Homo sapiens), sequence (Q15375 28-998 limits assumed): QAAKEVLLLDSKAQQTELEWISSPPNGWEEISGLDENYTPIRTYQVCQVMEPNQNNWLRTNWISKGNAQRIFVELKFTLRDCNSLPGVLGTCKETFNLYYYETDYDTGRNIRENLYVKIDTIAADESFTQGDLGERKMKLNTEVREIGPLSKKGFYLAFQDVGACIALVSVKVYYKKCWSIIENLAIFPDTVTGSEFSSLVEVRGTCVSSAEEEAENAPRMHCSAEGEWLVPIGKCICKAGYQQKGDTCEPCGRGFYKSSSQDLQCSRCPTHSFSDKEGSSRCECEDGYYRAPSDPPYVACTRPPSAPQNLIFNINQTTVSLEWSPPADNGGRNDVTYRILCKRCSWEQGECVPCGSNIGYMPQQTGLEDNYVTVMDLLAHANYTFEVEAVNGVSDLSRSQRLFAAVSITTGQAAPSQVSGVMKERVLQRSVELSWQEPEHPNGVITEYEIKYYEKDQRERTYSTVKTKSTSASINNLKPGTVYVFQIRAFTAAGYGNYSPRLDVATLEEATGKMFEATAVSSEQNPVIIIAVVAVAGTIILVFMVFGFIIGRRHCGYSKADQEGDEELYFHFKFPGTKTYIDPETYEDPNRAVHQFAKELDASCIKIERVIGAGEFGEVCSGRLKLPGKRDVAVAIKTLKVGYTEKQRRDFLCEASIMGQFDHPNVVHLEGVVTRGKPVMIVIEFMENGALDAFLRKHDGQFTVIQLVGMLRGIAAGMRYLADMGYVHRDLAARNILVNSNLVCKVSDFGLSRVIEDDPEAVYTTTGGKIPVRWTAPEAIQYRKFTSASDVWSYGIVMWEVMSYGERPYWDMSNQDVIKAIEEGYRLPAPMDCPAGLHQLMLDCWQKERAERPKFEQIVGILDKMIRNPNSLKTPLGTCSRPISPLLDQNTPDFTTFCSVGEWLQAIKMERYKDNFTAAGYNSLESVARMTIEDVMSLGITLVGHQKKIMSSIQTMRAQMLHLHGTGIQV
# [13] = molecular target: RAC-gamma serine/threonine-protein kinase (Homo sapiens) (UniProt Q9Y243); assay: AKT3 SGC Tm panel (DSF); conditions: for ΔTm: Compound concentration 10.0 uM
# RAC-gamma serine/threonine-protein kinase (Homo sapiens), sequence (Q9Y243 whole entry): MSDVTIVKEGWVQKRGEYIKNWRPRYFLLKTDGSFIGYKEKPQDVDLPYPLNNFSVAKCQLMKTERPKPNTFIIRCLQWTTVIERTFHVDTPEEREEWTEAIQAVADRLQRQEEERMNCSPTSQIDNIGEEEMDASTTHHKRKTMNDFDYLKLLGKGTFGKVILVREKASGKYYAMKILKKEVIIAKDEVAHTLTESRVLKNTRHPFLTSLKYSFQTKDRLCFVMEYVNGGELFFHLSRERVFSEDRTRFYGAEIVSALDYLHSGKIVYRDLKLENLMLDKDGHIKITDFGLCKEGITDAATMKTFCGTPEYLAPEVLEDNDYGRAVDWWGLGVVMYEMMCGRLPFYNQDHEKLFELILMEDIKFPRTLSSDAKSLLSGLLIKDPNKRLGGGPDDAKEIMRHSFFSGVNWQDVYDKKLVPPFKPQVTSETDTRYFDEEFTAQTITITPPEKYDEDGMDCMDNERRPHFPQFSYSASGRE
# [14] = molecular target: Serine/threonine-protein kinase 38-like (Homo sapiens) (UniProt Q9Y2H1); assay: STK38L SGC Tm panel (DSF); conditions: for ΔTm: Compound concentration 10.0 uM
# [15] = molecular target: SWI/SNF-related matrix-associated actin-dependent regulator of chromatin subfamily A member 2 (Homo sapiens, UniProt P51531); assay: Measurement of the ATPase catalytic activity using the ADP-Glo detection (SMARCA2); assay type: functional
# [16] = molecular target: Serine/threonine-protein kinase PAK 4 (Homo sapiens) (UniProt O96013); assay: PAK4 SGC Tm panel (DSF); conditions: for ΔTm: Compound concentration 10.0 uM
# Serine/threonine-protein kinase PAK 4 (Homo sapiens), sequence (O96013 whole entry, looked up): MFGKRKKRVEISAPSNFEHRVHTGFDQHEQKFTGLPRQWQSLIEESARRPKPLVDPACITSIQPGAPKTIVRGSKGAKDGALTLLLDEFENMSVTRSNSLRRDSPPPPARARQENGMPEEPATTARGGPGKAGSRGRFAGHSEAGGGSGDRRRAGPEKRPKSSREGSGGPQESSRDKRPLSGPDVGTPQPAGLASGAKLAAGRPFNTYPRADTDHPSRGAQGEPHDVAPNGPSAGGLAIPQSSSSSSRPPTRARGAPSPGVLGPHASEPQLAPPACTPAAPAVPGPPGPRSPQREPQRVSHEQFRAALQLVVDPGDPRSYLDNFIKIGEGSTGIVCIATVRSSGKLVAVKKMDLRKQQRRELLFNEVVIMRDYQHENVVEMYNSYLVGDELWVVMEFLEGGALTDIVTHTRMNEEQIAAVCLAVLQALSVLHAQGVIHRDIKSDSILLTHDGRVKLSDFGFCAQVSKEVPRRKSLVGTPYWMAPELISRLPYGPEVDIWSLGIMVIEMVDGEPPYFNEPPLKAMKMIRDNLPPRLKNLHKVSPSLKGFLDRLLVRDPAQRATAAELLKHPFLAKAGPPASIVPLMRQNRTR
# G protein-coupled receptor kinase 5 (Homo sapiens), sequence (P34947 whole entry, looked up): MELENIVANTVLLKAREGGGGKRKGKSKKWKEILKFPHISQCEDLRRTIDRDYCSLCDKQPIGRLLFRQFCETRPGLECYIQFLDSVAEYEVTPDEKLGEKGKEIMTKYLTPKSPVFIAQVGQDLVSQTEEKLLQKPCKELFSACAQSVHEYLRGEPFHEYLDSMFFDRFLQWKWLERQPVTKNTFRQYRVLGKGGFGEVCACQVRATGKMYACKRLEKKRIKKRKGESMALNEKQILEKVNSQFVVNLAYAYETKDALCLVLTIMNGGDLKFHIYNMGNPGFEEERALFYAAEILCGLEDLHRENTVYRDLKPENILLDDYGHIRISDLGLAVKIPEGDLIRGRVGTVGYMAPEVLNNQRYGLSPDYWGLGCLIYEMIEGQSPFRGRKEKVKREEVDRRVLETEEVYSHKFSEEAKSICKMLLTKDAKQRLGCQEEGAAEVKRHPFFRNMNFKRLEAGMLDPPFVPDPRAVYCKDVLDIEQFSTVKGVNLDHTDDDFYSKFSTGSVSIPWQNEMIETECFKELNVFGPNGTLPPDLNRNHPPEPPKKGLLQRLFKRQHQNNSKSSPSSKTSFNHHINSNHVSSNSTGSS
SMILES,delta Tm Staurosporine positive control [1],ΔTm [1],inhibition [2] [%],ΔTm [3],delta Tm Staurosporine positive control [4],ΔTm [4],inhibition [5] [%],delta Tm Staurosporine positive control [6],ΔTm [6],delta Tm Staurosporine positive control [7],ΔTm [7],delta Tm Staurosporine positive control [8],ΔTm [8],delta Tm Staurosporine positive control [9],ΔTm [9],delta Tm Staurosporine positive control [10],ΔTm [10],delta Tm Staurosporine positive control [11],ΔTm [11],delta Tm Staurosporine positive control [12],other results
C[C@H](NC(=O)c1cn(C2(C#N)CC2)cn1)C(=O)Nc1nc(-c2cccc(-c3ccn(C)n3)c2)cs1,6.82,0.226,8,-0.216,14.5,0.509,23,9.3,-0.834,6.35,0.284,0.177,-0.179,3.7,-0.146,6.74,-1.99,22.2,0.17,11.5,ΔTm [12]: 1.13; delta Tm Staurosporine positive control [13]: 7.03; ΔTm [13]: 0.193; delta Tm Staurosporine positive control [14]: 10.8; ΔTm [14]: 0.237; IC50 [15]: 1880 nM (not active); delta Tm Staurosporine positive control [16]: 13.4; ΔTm [16]: -0.0631
COC[C@H](NC(=O)c1ccn(S(C)(=O)=O)c1)C(=O)Nc1nc(-c2cccc(-c3ccn(C)n3)c2)cs1,6.82,0.544,-5.17,-0.638,14.5,0.588,29.7,9.3,-0.76,6.35,0.54,0.177,0.0215,3.7,0.182,6.74,-5.55,22.2,0.157,11.5,ΔTm [12]: 0.976; delta Tm Staurosporine positive control [13]: 7.03; ΔTm [13]: 0.0196; delta Tm Staurosporine positive control [14]: 10.8; ΔTm [14]: 0.451; IC50 [15]: 13.8 nM (active); delta Tm Staurosporine positive control [16]: 13.4; ΔTm [16]: -0.0385

# Source: ChEMBL document CHEMBL5303766, “Data for DCP probe FHT-2344” (2022)
